US8993542B2, “Methods of treating viral infections” (priority 2008, dated 2015)
pIC50: −log10 of the molar value. Like-named read-outs stand apart in the source and are kept apart here.

Columns and labels:
[1] = system: HIV-1IIIB; experiment: TCID50 determination of drug-treated HIV-1IIIB; format: cell-based; set-up: TCID50, XTT Endpoint / TCID50, RT Endpoint / TCID50, P24 Endpoint: unit not given here
[2] = system: HIV; experiment: microbe, parasite or virus in culture; format: cell-based
[3] = Toxicokinetics and 7-day toxicity after oral administration of CMX157 to rats; format: in vivo; details: for AUC0-24 / Cmax / Tmax / AUC(0-t) / AUC0-∞ / t1/2elim: rat plasma; for AUC(0-t): read-out: AUC0-24
[4] = system: CEM T-lymphocytic cells or MAGI-CCR5 cells; experiment: Cytotoxicity of two-drug combinations; details: 10 μM highest test concentration
Description: The anti-HIV-1 activity of CMX157 is evaluated in two-drug combination studies with twenty-four different FDA-approved anti-HIV inhibitors. Each two-drug combination is tested three times in CEM T-lymphocytic cells or MAGI-CCR5 cells acutely infected with the laboratory-adapted strain HIV-1IIIB or HIV-1Ba-L, respectively. Viral growth/inhibition is evaluated by measuring virus-induced cytopathic effects (CPE) in CEM cells or by β-galactosidase reporter gene induction in MAGI-CCR5 cells at the experimental endpoint. The cytotoxicity of each two-drug combination is also evaluated in parallel with the antiviral evaluations. The concentrations of CMX157 used in these evaluations are selected in order to test a broad range of concentrations and to provide as complete a dose response curve as possible under the limitations of eight total concentrations. […] The “positive antagonism control” of d4T (stavudine) in combination with RBV was tested in parallel with each of the assays that were performed. Analysis of drug interactions for each of the two-drug combinations is performed using the Prichard and Shipman MacSynergy II three-dimensional model for statistical evaluation of combination assays.

[5] = virus treated 2 hours with 125 nM drug
[6] = virus treated 2 hours with 250 nM drug
[7] = virus treated 2 hours with 500 nM drug
[8] = virus treated 2 hours with 1000 nM drug

SMILES: CCCCCCCCCCCCCCCCOCCCOP(=O)(O)CO[C@H](C)Cn1cnc2c(N)ncnc21 [CMX157, Hexadecyloxypropyl-9-R-[2-(Phosphonomethoxy)Propyl]-Adenine]
- TCID50, XTT Endpoint ([1]; virus treated 15 minutes with 125 nM drug): 4027
- Fold Decrease From VC, P24 Endpoint [1, 5]: (4.0) Fold
- Fold Decrease From VC, RT Endpoint [1, 5]: (1.6) Fold
- Fold Decrease From VC, XTT Endpoint [1, 5]: (4.0) Fold
- TCID50, P24 Endpoint [1, 5]: 9058
- TCID50, RT Endpoint [1, 5]: 51172
- TCID50, XTT Endpoint [1, 5]: 1132
- Fold Decrease From VC, P24 Endpoint [1, 6]: (3.4) Fold
- Fold Decrease From VC, RT Endpoint [1, 6]: (3.2) Fold
- Fold Decrease From VC, XTT Endpoint [1, 6]: (4.0) Fold
- TCID50, P24 Endpoint [1, 6]: 10765
- TCID50, RT Endpoint [1, 6]: 25588
- TCID50, XTT Endpoint [1, 6]: 1132
- Fold Decrease From VC, P24 Endpoint [1, 7]: (4.8) Fold
- Fold Decrease From VC, RT Endpoint [1, 7]: (2.2) Fold
- Fold Decrease From VC, XTT Endpoint [1, 7]: (4.0) Fold
- TCID50, P24 Endpoint [1, 7]: 7604
- TCID50, RT Endpoint [1, 7]: 36227
- TCID50, XTT Endpoint [1, 7]: 1132
- Fold Decrease From VC, P24 Endpoint [1, 8]: (4.8) Fold
- Fold Decrease From VC, RT Endpoint [1, 8]: (2.2) Fold
- Fold Decrease From VC, XTT Endpoint [1, 8]: (4.0) Fold
- TCID50, P24 Endpoint [1, 8]: 7604
- TCID50, RT Endpoint [1, 8]: 36227
- TCID50, XTT Endpoint [1, 8]: 1132
- pIC50 ([2]; Human immunodeficiency virus 1, PANEL 1, WT): 8.76
- pIC50 ([2]; Human immunodeficiency virus 1, PANEL 2, WT): 8.79
- pIC50 ([2]; Human immunodeficiency virus 1, PANEL 3, 6 TAMs, no 184): 8.07
- pIC50 ([2]; Human immunodeficiency virus 1, PANEL 6, 6 TAMs + 184): 8.28
- pIC50 ([2]; Human immunodeficiency virus 1, PANEL 7, 184V): 8.87
- pIC50 ([2]; Human immunodeficiency virus 1, PANEL 9, 69ins, no 184): 7.24
- pIC50 ([2]; Human immunodeficiency virus 1, PANEL 12, 69ins + 184): 7.95
- pIC50 ([2]; Human immunodeficiency virus 1, PANEL 14, 65R, no 184): 8.44
- pIC50 ([2]; Human immunodeficiency virus 1, PANEL 15, 65R + 184V): 8.57
- pIC50 ([2]; Human immunodeficiency virus 1, PANEL 17, L74V): 8.91
- pIC50 ([2]; Human immunodeficiency virus 1, PANEL 19, L74V + M184V): 9.18
- pIC50 ([2]; Human immunodeficiency virus 1, PANEL 26, 151M, no 184): 8.43
- pIC50 ([2]; Human immunodeficiency virus 1, PANEL 28, 151M + 184): 8.52
- pIC50 ([2]; Human immunodeficiency virus 1, PANEL 29, L74V − SDM): 8.83
- pIC50 ([2]; Human immunodeficiency virus 1, PANEL 30, M184V − SDM): 8.94
- pIC50 ([2]; Human immunodeficiency virus 1, PANEL 31, K65R − SDM): 8.33
- pIC50 ([2]; Human immunodeficiency virus 1, PANEL 33, T215Y): 8.30
- pIC50 ([2]; Human immunodeficiency virus 1, PANEL 34, T215Y + M184V): 8.78
- pIC50 ([2]; Human immunodeficiency virus 1, PANEL 35, M41L + T215Y): 8.41
- pIC50 ([2]; Human immunodeficiency virus 1, PANEL 37, M41L + T215Y + M184V): 8.54
- pIC50 ([2]; Human immunodeficiency virus 1, PANEL 38, M41L + L210W + T215Y): 8.22
- pIC50 ([2]; Human immunodeficiency virus 1, PANEL 39, M41L + L210W + T215Y): 8.18
- pIC50 ([2]; Human immunodeficiency virus 1, PANEL 40, M41L + L210W + T215Y + M184V): 8.72
- pIC50 ([2]; Human immunodeficiency virus 1, PANEL 41, M41L + L210W + T215Y + M184V): 8.60
- pIC50 ([2]; Human immunodeficiency virus 1, PANEL 42, D67N + K70R): 8.25
- pIC50 ([2]; Human immunodeficiency virus 1, PANEL 44, D67N + K70R + T215F + K219E + M184V): 8.72
- pIC50 ([2]; Human immunodeficiency virus 1, PANEL 45, L210W + T215Y): 8.55
- pIC50 ([2]; Human immunodeficiency virus 1, PANEL 46, D67N + K70E): 8.67
- pIC50 ([2]; Human immunodeficiency virus 1, PANEL 47, D67N + K70E + M184V): 8.84
- pIC50 ([2]; Human immunodeficiency virus 1, PANEL 48, K70E + M184V): 8.88
- pIC50 ([2]; Human immunodeficiency virus 1, read-out: IC50s against NRTI resistant HIV, range over panel): 7.24 to 8.92
- AUC0-24 ([3]; oral CMX157 10 mg/kg, day 1): 441.7 ng·h/mL
- Cmax ([3]; oral CMX157 10 mg/kg, day 1): 84.85 ng/mL
- Tmax ([3]; oral CMX157 10 mg/kg, day 1): 0.5 h
- Cmax ([3]; oral CMX157 10 mg/kg, day 7): 110.90 ng/mL
- Tmax ([3]; oral CMX157 10 mg/kg, day 7): 0.5 h
- AUC(0-t) ([3]; oral CMX157 10 mg/kg, day 7): 435 ng·h/mL
- AUC0-24 ([3]; oral CMX157 30 mg/kg, day 1): 1,832.8 ng · h/ml
- Cmax ([3]; oral CMX157 30 mg/kg, day 1): 379.00 ng/mL
- Tmax ([3]; oral CMX157 30 mg/kg, day 1): 2.0 h
- Cmax ([3]; oral CMX157 30 mg/kg, day 7): 202.50 ng/mL
- Tmax ([3]; oral CMX157 30 mg/kg, day 7): 1.0 h
- AUC(0-t) ([3]; oral CMX157 30 mg/kg, day 7): 1540 ng·h/mL
- AUC0-24 ([3]; oral CMX157 100 mg/kg, day 1): 5,408 ng · h/ml
- AUC0-∞ ([3]; oral CMX157 100 mg/kg, day 1): 5,429.8 ng · h/ml
- Cmax ([3]; oral CMX157 100 mg/kg, day 1): 905.00 ng/mL
- Tmax ([3]; oral CMX157 100 mg/kg, day 1): 2.0 h
- t1/2elim ([3]; oral CMX157 100 mg/kg, day 1): 2.5 h
- AUC0-∞ ([3]; oral CMX157 100 mg/kg, day 7): 8,050.6 ng · h/ml
- Cmax ([3]; oral CMX157 100 mg/kg, day 7): 685.50 ng/mL
- Tmax ([3]; oral CMX157 100 mg/kg, day 7): 2.0 h
- t1/2elim ([3]; oral CMX157 100 mg/kg, day 7): 1.6 h
- AUC(0-t) ([3]; oral CMX157 100 mg/kg, day 7): 8050 ng·h/mL
- no-observed-adverse-effect level ([3]; rats, 7 days, highest dose tested): up to 100 mg/kg/day
- synergistic cytotoxicity [4]: no evidence of synergistic cytotoxicity
